According to paper PMC5911580, “YL143, a novel mutant selective irreversible EGFR inhibitor, overcomes EGFR^L858R, T790M‐mutant resistance in vitro and in vivo” (Cancer Medicine, 2018):
“Also recorded” adds a separate entry of the source.

Legend:
[1] = test system: H1975 xenograft; assay: H1975 tumor xenograft in CB17-SCID mice; format: in vivo; details: 30 mg/kg, po, qd
Method: Male CB17‐SCID mice were purchased from Vital River Laboratory Animal Technology Inc. (Beijing, China). H1975 cells (5 × 10^6/mouse) were injected subcutaneously in the right flanks of mice. […] All the compounds were suspended in 0.5% CMC‐Na aqueous solution. The tumor volume and body weight of animals were measured once every 2 days. Tumor volume was calculated as the L × W ^2/2 (L and W are the length and width of the tumor, respectively). All animal experiments were approved by the Institutional Animal Use and Care Committee of Guangzhou Institute of Biomedicine and Health, Chinese Academy of Science.

[2] = Pharmacokinetic study in SD rats; format: in vivo, rat
Method: Sprague Dawley (SD) rats (180–220 g) were fasted overnight before drug administration. They could eat food and drink water freely during the study. Rats were grouped and treated with 25 and 5 mg/kg of YL143 in vehicle via oral gavage and i.v., respectively. Eyeground vein blood samples (0.20 mL) were collected from each animal at designed time point postdose (5, 30 min, 1, 2, 4, 8, 12, 24, 36, 48, 60, and 72 h.). Blood samples were centrifuged within 10 min at 900 g, and then, plasma was separated and stored at 4°C until analysis. Drug concentration was quantitatively detected using an API 300 mass spectrometer (Applied Biosystems, Canada) with TurboIonSpray source interface. Data acquisition and quantitation were performed using Analyst 1.4 (Applied Biosystems, Canada). All pharmacokinetic parameters were calculated by DAS 2.0 using a noncompartment model (Clinical drug research center of Shanghai University of Traditional Chinese Medicine, Shanghai, China).

[3] = test system: BaF3; assay: CCK-8 assay, BaF3 cells; format: cell-based; details: Mus musculus, AV±SD, read-out: anti-proliferative activity BaF3
Method: Cells were seeded into 96‐well plates at a density of 1500~3000/well in complete medium overnight. Then, cells were treated with various concentrations (0.01~1000 nmol/L) of YL143 for additional 3 days. Viable cell numbers were determined by Cell Counting Kit 8 (CCK8, CK04, Dojindo Laboratories, Japan). Each assay consisted of three replicate wells and repeated at least three times. […] Each IC50 value was expressed as mean ± SD.
The anti-proliferative activities of the compounds were evaluated using CCK-8 assay. The data were means from at least four independent experiments.

[4] = molecular target: IR (Homo sapiens, UniProt P06213); assay: FRET-based Z'-Lyte kinase assay, IR; format: biochemical; details: AV ± SD; 1.5 h incubation
Method: (§1) The kinase activity assay was performed and optimized according to the instructions of Z’‐LYTE™ kinase assay kits from the manufacturer (PV4879, Life, America). In our experiments, 10 concentration gradients from 0.01 nmol/L to 1.0 μmol/L were used for all the compounds.

[5] = molecular target: T1, EGFR (Homo sapiens, UniProt P00533); assay: Z'-Lyte kinase panel, EGFR; format: biochemical; details: 1.5 hrs incubation
T1 construct: purchased Invitrogen
Method: as §1, with “All EGFR (WT, L858R, L858R/T790M, etc.) recombinant human protein was purchased from Invitrogen. The” for “The”
(§2) Kinase activity assays were performed using the FRET-based Z′-Lyte assay according to the manufacturer’s instructions. The compounds were incubated with the kinase reaction mixture for 1.5 hrs before measurement. The data are means from two independent experiments and the variations are below 20%.

[6] = molecular target: EGFR^L858R/T790M (Homo sapiens, UniProt P00533, L858R/T790M); assay: Compound washout assay on H1975 cells (Western blot); format: cell-based; details: 100 nmol/L for 4 h, then washout, 24 h
Method: (§3) Cells were treated with various concentrations of compound for designed time. Then, cells were lysed using 1 × SDS sample lysis buffer (CST recommended) with protease and phosphatase inhibitors. Cell lysates were loaded and electrophoresed onto 8–12% SDS‐PAGE gel, and then, separated proteins were transferred to a PVDF film. The film was blocked with 5% fat‐free milk in TBS solution containing 0.5% Tween‐20 for 4 h at room temperature and then incubated with corresponding primary antibody (1:1000–1:200) overnight at 4°C. After washing with TBST, HRP‐conjugated secondary antibody was incubated for 2 h. And the protein signals were visualized by ECL Western Blotting Detection Kit (Thermo Scientific, Waltham, MA) and detected with Amersham Imager 600 system (GE, America).
Cells were treated with or without compound YL143 for 4 h at indicated concentration, respectively. Cells were harvested for Western blot analysis. […] NCI‐H1975 cells were treated with or without compound YL143(100 nmol/L) for 4 h, and then the medium with compound was removed and fresh medium was added. At the indicated time points, cells were harvest and proteins were extracted and subjected to Western blot analysis.

[7] = molecular target: AKT2 (Homo sapiens, UniProt P31751); assay: Z'-Lyte kinase panel, AKT2; format: biochemical; details: 1.5 hrs incubation
Method: as §2

[8] = test system: EGFR signal pathway in A431 cells; assay: Western blot of EGFR signaling in A431 cells; format: cell-based; details: compared with H1975
Method: as §3
The selective EGFR ^L858R/T790M inhibition of YL143 was investigated in H1975, HCC827, A549, and A431 cancer cells harboring different statuses of EGFR by Western blotting analysis (Fig. 2A).

[9] = molecular target: TRKA (Homo sapiens, UniProt P04629); assay: Z'-Lyte kinase panel, TRKA; format: biochemical; details: 1.5 hrs incubation
Method: as §2

[10] = Sprague-Dawley, rat, plasma, iv, I.V. 5 mg/Kg
[11] = Sprague-Dawley, rat, plasma, po, P.O. 25 mg/Kg

Chain of IR (P06213 28-1382): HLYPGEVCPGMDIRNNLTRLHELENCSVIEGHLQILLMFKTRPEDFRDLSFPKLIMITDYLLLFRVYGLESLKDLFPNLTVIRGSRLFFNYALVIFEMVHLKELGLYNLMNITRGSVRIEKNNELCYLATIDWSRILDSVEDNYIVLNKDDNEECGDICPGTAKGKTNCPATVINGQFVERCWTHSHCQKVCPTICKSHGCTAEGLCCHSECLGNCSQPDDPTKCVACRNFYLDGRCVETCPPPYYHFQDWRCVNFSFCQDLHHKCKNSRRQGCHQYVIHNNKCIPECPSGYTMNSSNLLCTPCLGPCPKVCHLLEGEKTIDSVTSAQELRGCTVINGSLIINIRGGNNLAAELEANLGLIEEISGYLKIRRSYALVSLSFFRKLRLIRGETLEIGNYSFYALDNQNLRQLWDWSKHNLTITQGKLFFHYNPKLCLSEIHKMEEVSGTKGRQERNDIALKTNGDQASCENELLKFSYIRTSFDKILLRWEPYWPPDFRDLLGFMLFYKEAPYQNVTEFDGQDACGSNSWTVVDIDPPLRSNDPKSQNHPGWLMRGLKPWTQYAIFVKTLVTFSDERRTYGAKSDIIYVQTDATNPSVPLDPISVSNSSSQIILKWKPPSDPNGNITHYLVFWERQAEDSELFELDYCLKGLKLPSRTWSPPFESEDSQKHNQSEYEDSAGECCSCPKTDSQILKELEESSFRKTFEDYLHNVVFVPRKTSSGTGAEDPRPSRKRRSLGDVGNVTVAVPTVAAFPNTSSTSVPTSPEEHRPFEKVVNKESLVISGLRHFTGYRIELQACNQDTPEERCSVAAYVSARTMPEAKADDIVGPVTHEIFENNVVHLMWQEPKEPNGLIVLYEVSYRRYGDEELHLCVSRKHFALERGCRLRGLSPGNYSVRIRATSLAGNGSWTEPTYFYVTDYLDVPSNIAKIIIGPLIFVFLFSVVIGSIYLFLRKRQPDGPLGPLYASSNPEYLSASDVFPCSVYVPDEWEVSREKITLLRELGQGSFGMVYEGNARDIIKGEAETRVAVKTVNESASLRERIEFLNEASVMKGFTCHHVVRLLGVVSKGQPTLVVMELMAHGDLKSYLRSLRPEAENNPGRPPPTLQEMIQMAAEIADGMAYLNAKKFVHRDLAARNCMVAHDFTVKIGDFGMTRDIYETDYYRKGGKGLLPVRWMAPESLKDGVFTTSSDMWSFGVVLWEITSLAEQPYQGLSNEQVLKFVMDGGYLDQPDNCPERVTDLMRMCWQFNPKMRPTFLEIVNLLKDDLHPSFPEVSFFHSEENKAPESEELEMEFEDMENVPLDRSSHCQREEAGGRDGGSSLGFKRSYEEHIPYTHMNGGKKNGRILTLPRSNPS
Chain of AKT2 (P31751 whole entry, species assumed): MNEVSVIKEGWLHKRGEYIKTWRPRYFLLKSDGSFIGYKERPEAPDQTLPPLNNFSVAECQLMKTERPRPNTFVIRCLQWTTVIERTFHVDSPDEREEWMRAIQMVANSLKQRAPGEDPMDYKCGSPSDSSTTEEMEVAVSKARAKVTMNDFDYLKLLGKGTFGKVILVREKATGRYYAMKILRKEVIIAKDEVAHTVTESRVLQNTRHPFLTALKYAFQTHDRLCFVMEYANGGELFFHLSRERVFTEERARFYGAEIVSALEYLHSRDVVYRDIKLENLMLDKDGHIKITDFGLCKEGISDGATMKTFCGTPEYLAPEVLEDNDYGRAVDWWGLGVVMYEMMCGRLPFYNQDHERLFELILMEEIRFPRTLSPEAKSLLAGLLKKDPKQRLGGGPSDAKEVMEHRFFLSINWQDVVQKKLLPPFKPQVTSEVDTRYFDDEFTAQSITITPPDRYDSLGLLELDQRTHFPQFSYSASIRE
Chain of TRKA (P04629 33-796, species assumed): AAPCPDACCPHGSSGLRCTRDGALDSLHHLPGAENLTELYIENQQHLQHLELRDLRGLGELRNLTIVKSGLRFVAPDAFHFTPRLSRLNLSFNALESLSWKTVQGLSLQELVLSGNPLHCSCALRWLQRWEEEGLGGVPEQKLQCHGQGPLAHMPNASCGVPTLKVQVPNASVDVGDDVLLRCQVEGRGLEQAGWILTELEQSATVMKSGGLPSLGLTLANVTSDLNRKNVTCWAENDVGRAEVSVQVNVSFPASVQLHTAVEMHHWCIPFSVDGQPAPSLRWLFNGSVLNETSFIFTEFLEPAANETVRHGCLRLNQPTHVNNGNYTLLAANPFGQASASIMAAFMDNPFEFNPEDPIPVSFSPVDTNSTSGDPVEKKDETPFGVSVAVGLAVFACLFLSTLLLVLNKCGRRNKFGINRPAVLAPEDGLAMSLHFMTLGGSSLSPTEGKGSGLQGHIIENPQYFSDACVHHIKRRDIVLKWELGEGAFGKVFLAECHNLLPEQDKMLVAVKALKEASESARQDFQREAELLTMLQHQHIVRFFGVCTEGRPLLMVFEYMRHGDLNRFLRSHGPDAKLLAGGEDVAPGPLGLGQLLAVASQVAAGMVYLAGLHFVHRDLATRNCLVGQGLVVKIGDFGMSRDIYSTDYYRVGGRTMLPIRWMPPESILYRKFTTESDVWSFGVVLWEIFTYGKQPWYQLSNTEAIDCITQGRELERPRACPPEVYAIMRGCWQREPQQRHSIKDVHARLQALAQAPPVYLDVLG

C=CC(=O)Nc1cc(C)cc(-n2c(=O)cc(C)c3cnc(Nc4ccc(N5CCN(C)CC5)cc4OC)nc32)c1 [YL143, N‐(3‐(2‐((2‐Methoxy‐4‐(4‐methylpiperazin‐1‐yl)phenyl)amino)‐5‐methyl‐7‐oxopyrido [2,3‐d]pyrimidin‐8(7H)‐yl)‐5‐methylphenyl)acrylamide]
TUNEL stain of the tumor tissue ([1]; 18 days): induced apoptosis | antitumor efficacy ([1]; 18 days): promising antitumor efficacy; also recorded: comparable in vivo antitumor effect to that of CO1686 | tolerability (mortality, body weight) ([1]; 18 days): well tolerated; also recorded: without significantly toxic signs | hyperglycemia side effect (blood glucose) ([1]; day 7 and 14, compared with CO1686): weaker hyperglycemia side effect | BA (oral bioavailability) ([2]; P.O. 25 mg/Kg vs I.V. 5 mg/Kg): 24.95% | T1/2 ([2]; P.O. 25 mg/Kg, 25 mg/kg): 6.13 h | half-life ([2]; Sprague-Dawley, rat, plasma, iv, 5 mg/kg, I.V. 5 mg/Kg): 1.36 h | AUC(0-inf) [2, 10]: 1880 ng·h/mL | Cmax [2, 10]: 3270 ng/mL | Tmax [2, 10]: 0.08 h | bioavailability ([2]; Sprague-Dawley, rat, plasma, oral, 25 mg/kg, P.O. 25 mg/Kg vs I.V. 5 mg/Kg, read-out: BA (oral bioavailability)): 25% | half-life ([2]; Sprague-Dawley, rat, plasma, po, 25 mg/kg, P.O. 25 mg/Kg): 6.1 h | AUC(0-inf) [2, 11]: 2340 ng·h/mL | Cmax [2, 11]: 160 ng/mL | Tmax [2, 11]: 6.67 h | Cmax ([2]; Sprague-Dawley, rat, plasma, single oral dosing 25 mg/kg): 297 nM | IC50 [3]: > 10 µM | IC50 [4]: 0.0075 ± 0.0001 µM | IC50 [5]: 0.0353 µM | EGFR^L858R/T790M phosphorylation recovery after withdrawal [6]: no EGFR^L858R/T790M phosphorylation recovery was observed | IC50 [7]: > 10 µM | effect on EGFR signal pathway [8]: obviously less potent | IC50 [9]: > 10 µM
